Source: US20240124410A1, “SMALL MOLECULES AND THEIR USE AS MALT1 INHIBITORS” (University of Pittsburgh - Of the Commonwealth System of …, priority 2021, published 2024)

Tests used:
BCL10-MALT1 interaction = target: T1, BCL10-MALT1 interaction (Homo sapiens, UniProt Q9UDY8); experiment: SPR analysis of disruption of the BCL10-MALT1 interaction, dose-response (FIG. 2E); Biacore 2000, full-length Bcl10 (GST-tagged recombinant human, Abnova H00008915-P01) immobilized on sensor chip, MALT1 protein passed over; format: binding
T1 construct: analyte a purified recombinant MALT1 fragment (DD+Ig1-2, Sumo-tagged Ig1-2 or GB-tagged DD)
T1 sequence (Q9UDY8 1-824): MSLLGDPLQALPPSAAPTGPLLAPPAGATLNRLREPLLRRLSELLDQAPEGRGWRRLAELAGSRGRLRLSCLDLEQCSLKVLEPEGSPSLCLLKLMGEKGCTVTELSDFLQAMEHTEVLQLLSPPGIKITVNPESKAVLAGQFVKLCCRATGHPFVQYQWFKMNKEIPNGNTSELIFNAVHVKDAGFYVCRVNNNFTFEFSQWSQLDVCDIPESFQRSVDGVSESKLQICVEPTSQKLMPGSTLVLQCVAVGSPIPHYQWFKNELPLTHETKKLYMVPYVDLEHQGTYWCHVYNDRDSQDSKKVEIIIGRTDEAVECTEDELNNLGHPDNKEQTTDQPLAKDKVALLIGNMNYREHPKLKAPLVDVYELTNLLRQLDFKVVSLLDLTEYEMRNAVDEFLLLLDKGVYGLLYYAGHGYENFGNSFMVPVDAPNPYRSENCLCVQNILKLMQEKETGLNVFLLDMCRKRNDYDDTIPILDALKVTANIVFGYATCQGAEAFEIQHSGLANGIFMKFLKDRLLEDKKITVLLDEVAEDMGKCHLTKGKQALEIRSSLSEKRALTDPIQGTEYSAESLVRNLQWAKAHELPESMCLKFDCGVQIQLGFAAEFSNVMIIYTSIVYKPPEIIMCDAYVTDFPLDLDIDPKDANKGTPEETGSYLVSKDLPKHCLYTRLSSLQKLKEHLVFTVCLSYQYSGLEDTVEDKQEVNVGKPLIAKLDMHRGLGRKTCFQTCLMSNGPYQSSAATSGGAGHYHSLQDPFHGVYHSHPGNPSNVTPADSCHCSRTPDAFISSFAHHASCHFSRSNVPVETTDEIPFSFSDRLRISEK
T1 sequence (O95999 1-233 partner): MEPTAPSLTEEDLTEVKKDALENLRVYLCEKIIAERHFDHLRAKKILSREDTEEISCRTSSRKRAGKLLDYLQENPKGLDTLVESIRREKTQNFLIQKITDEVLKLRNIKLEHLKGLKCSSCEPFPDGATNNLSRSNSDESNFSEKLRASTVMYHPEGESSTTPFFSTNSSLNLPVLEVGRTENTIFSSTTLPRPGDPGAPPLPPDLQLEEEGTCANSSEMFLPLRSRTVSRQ
From the text: FIG. 2. In silico screening identifies small molecules targeting the predicted BCL10-binding groove within MALT1 (Ig1-2). (A) We performed a structure-guided in silico screen of 3 million compounds, using the LibDock program from Discovery Studio 3.5, in order to identify candidate molecules that could potentially fit within the identified groove in the MALT1 Ig1-2 domain. Lipinski's rule of five filters (LipinskiRo5) were applied to enrich for compounds with drug-like properties. Potential compound hits were then screened for their ability to disrupt the MALT1-BCL10 interaction using SPR analysis. 9 candidate compounds were then subjected to a second, ELISA-based MALT1-BCL10 interaction assay, identifying 2 compounds that could disrupt the interaction in both SPR and ELISA assays. M1i-124 and M1i-1255 are the two compounds identified to disrupt the BCL10-MALT1 interaction. […]
The LibDock program from Discovery Studio 3.5 was used to perform a structure-guided in silico screen of 3 million compounds to identify candidate molecules that could potentially fit within the identified groove of MALT1 Igl-Ig2 domain, found to be critical for BCL10-MALT1 interaction. […] Top hits were further evaluated for their potential to disrupt the BCL10-MALT1 interaction through secondary SPR and ELISA-based assays as described below. […]

[1] = tested on: MALT1 proteolytic cleavage of RelB and N4BP1; experiment: RelB and N4BP1 cleavage assay in Jurkat T cells; format: cell-based; details: 20 hours pretreatment, MG132, PMA/iono stimulation

Row | SMILES | IC50 (BCL10-MALT1 interaction) [µM] | MALT1 proteolytic cleavage of N4BP1 (ratio cleaved/full-length) [1] | MALT1 proteolytic cleavage of RelB (ratio cleaved/full-length) [1]
1 | O=S(=O)(NCc1ccc2c(c1)OCO2)c1ccc(Cc2ccc(S(=O)(=O)NCc3ccc4c(c3)OCO4)cc2)cc1 [M1i-124] | 22 | – | –
2 | COc1ccc(CNS(=O)(=O)c2ccc(Cc3ccc(S(=O)(=O)NCc4ccc(OC)cc4)cc3)cc2)cc1 [M1i-124d1] | – | inhibit | inhibit
